Laboratory results taken from the NIST ThermoML archive (doi:10.1021/acs.jced.5b00474).
Numbers after ± are expanded uncertainties.

Test: xn = mol fraction of the nth substance listed
Settings: 101 kPa, Liquid; for speed of sound: Frequency=3 MHz, Sing-around technique in a fixed-path interferometer; for mass density: Vibrating tube method

O=C1CCCN1 [2-pyrrolidinone] + ClC(Cl)Cl
Settings	mass density [kg/m3]	speed of sound [m/s]
293.15 K, x1 = 0.1002	1457.64 ± 0.56	1033.4 ± 0.82
293.15 K, x1 = 0.199	1424.67 ± 0.55	1074.6 ± 0.81
293.15 K, x1 = 0.3019	1388.18 ± 0.54	1124.8 ± 0.82
293.15 K, x1 = 0.4027	1351 ± 0.54	1179 ± 0.83
293.15 K, x1 = 0.5022	1313.31 ± 0.53	1238.7 ± 0.85
293.15 K, x1 = 0.697	1235.75 ± 0.53	1374.5 ± 0.89
293.15 K, x1 = 0.7992	1194.43 ± 0.52	1457.3 ± 0.91
293.15 K, x1 = 0.9	1152.99 ± 0.52	1548.8 ± 0.94
293.15 K, x1 = 1	1111.44 ± 0.51	1649.3 ± 0.94
293.16 K, x1 = 0.6054	1272.91 ± 0.53	1307.2 ± 0.86
295.15 K, x1 = 0.199	1421.54 ± 0.55	–
295.15 K, x1 = 0.3019	1385.33 ± 0.55	–
295.15 K, x1 = 0.4027	1348.4 ± 0.54	–
295.15 K, x1 = 0.5022	1310.93 ± 0.53	–
295.15 K, x1 = 0.6054	1270.72 ± 0.53	–
295.15 K, x1 = 0.697	1233.71 ± 0.52	–
295.15 K, x1 = 0.7992	1192.54 ± 0.52	–
295.15 K, x1 = 0.9	1151.23 ± 0.52	–
298.15 K, x1 = 0.1002	1449.07 ± 0.56	1017.4 ± 0.78
298.15 K, x1 = 0.199	1416.87 ± 0.55	1059.6 ± 0.79
298.15 K, x1 = 0.3019	1381.1 ± 0.55	1109.8 ± 0.8
298.15 K, x1 = 0.4027	1344.53 ± 0.54	1164.5 ± 0.81
298.15 K, x1 = 0.5022	1307.38 ± 0.53	1223.7 ± 0.83
298.15 K, x1 = 0.6054	1267.47 ± 0.53	1292.9 ± 0.84
298.15 K, x1 = 0.697	1230.66 ± 0.52	1358.9 ± 0.87
298.15 K, x1 = 1	1107.35 ± 0.51	1632.9 ± 0.94
298.16 K, x1 = 0.7992	1189.72 ± 0.52	1442.2 ± 0.89
298.16 K, x1 = 0.9	1148.6 ± 0.52	1533.3 ± 0.91
301.15 K, x1 = 1	1104.88 ± 0.51	–
303.15 K, x1 = 0.1002	1440.46 ± 0.56	1001.5 ± 0.78
303.15 K, x1 = 0.199	1409.07 ± 0.55	1044 ± 0.79
303.15 K, x1 = 0.3019	1374 ± 0.55	1094.7 ± 0.8
303.15 K, x1 = 0.4027	1338.05 ± 0.54	1149.5 ± 0.81
303.15 K, x1 = 0.5022	1301.43 ± 0.53	1208.6 ± 0.82
303.15 K, x1 = 0.697	1225.58 ± 0.52	1343.1 ± 0.86
303.15 K, x1 = 0.7992	1184.99 ± 0.52	1426.5 ± 0.88
303.15 K, x1 = 0.9	1144.21 ± 0.52	1517.3 ± 0.91
303.15 K, x1 = 1	1103.26 ± 0.51	1616.7 ± 0.93
303.16 K, x1 = 0.6054	1262 ± 0.53	1278.2 ± 0.84
308.15 K, x1 = 0.1002	1431.81 ± 0.57	985.52 ± 0.75
308.15 K, x1 = 0.199	1401.22 ± 0.56	1028.3 ± 0.77
308.15 K, x1 = 0.4027	1331.55 ± 0.54	1134.4 ± 0.79
308.15 K, x1 = 0.5022	1295.47 ± 0.54	1193.5 ± 0.8
308.15 K, x1 = 0.6054	1256.52 ± 0.53	1263.1 ± 0.83
308.15 K, x1 = 0.697	1220.48 ± 0.52	1327.1 ± 0.83
308.15 K, x1 = 0.7992	1180.28 ± 0.52	1411 ± 0.86
308.15 K, x1 = 0.9	1139.82 ± 0.52	1501.5 ± 0.89
308.15 K, x1 = 1	1099.17 ± 0.51	1600.5 ± 0.93
308.16 K, x1 = 0.3019	1366.88 ± 0.55	1079.5 ± 0.78
313.15 K, x1 = 1	1095.08 ± 1.1	1584.5 ± 1.8
318.16 K, x1 = 1	1091 ± 0.51	1568.6 ± 0.92
323.16 K, x1 = 1	1086.92 ± 0.51	1552.8 ± 0.91

O=C1CCCN1 [2-pyrrolidinone] + CC#N
Settings	mass density [kg/m3]	speed of sound [m/s]
298.15 K, x1 = 0.1025	827.196 ± 0.52	1311.2 ± 0.88
298.15 K, x1 = 0.1865	864.997 ± 0.51	1337 ± 0.9
298.15 K, x1 = 0.3069	913.434 ± 0.51	1380.2 ± 0.89
298.15 K, x1 = 0.3976	946.686 ± 0.51	1414.4 ± 0.89
298.15 K, x1 = 0.4974	979.551 ± 0.51	1451.9 ± 0.9
298.15 K, x1 = 0.605	1012.17 ± 0.51	1492.9 ± 0.9
298.15 K, x1 = 0.695	1036.85 ± 0.51	1526.1 ± 0.91
298.15 K, x1 = 0.7932	1061.58 ± 0.51	1561.6 ± 0.92
298.15 K, x1 = 0.8972	1085.63 ± 0.51	1598.1 ± 0.93
303.15 K, x1 = 0.1025	821.985 ± 0.52	–
303.15 K, x1 = 0.1865	859.946 ± 0.52	1317.8 ± 0.88
303.15 K, x1 = 0.3069	908.581 ± 0.52	1362.3 ± 0.88
303.15 K, x1 = 0.3976	941.969 ± 0.51	1396.8 ± 0.89
303.15 K, x1 = 0.4974	974.979 ± 0.51	1434.8 ± 0.89
303.15 K, x1 = 0.605	1007.72 ± 0.51	1476 ± 0.9
303.15 K, x1 = 0.695	1032.51 ± 0.51	1509.5 ± 0.91
303.15 K, x1 = 0.7932	1057.33 ± 0.51	1545.2 ± 0.92
303.15 K, x1 = 0.8972	1081.46 ± 0.51	1582.1 ± 0.93
308.15 K, x1 = 0.1025	816.754 ± 0.52	–
308.15 K, x1 = 0.1865	854.873 ± 0.52	1298.8 ± 0.87
308.15 K, x1 = 0.3069	903.718 ± 0.52	1344.4 ± 0.88
308.15 K, x1 = 0.3976	937.251 ± 0.51	1379.3 ± 0.88
308.15 K, x1 = 0.4974	970.394 ± 0.51	1417.7 ± 0.89
308.15 K, x1 = 0.695	1028.15 ± 0.51	1492.4 ± 0.91
308.15 K, x1 = 0.8972	1077.29 ± 0.51	1565.9 ± 0.92
308.16 K, x1 = 0.605	1003.27 ± 0.51	1459.2 ± 0.9
308.16 K, x1 = 0.7932	1053.07 ± 0.51	1528.7 ± 0.91
313.15 K, x1 = 0.1025	811.493 ± 0.52	–
313.15 K, x1 = 0.1865	849.779 ± 0.52	1280.1 ± 0.87
313.15 K, x1 = 0.3069	898.84 ± 0.52	1326.7 ± 0.87
313.15 K, x1 = 0.605	998.811 ± 0.51	1442.4 ± 0.89
313.15 K, x1 = 0.7932	1048.82 ± 0.51	1512.3 ± 0.91
313.15 K, x1 = 0.8972	1073.12 ± 0.51	1549.8 ± 0.92
313.16 K, x1 = 0.3976	932.515 ± 0.51	1361.9 ± 0.88
313.16 K, x1 = 0.4974	965.8 ± 0.51	1400.7 ± 0.88
313.16 K, x1 = 0.695	1023.8 ± 0.51	1475.5 ± 0.9
318.15 K, x1 = 0.1025	806.204 ± 0.52	–
318.15 K, x1 = 0.1865	844.673 ± 0.52	1261.4 ± 0.86
318.15 K, x1 = 0.3976	927.77 ± 0.51	1344.6 ± 0.87
318.15 K, x1 = 0.605	994.35 ± 0.51	1425.7 ± 0.89
318.15 K, x1 = 0.695	1019.44 ± 0.51	1458.7 ± 0.9
318.15 K, x1 = 0.7932	1044.56 ± 0.51	1496.1 ± 0.9
318.15 K, x1 = 0.8972	1068.96 ± 0.51	1533.8 ± 0.91
318.16 K, x1 = 0.3069	893.944 ± 0.52	1308.8 ± 0.87
318.16 K, x1 = 0.4974	961.2 ± 0.51	1383.7 ± 0.88
323.15 K, x1 = 0.8972	1064.8 ± 0.51	1517.9 ± 0.91
323.16 K, x1 = 0.1025	800.887 ± 0.53	–
323.16 K, x1 = 0.1865	839.54 ± 0.53	1242.8 ± 0.84
323.16 K, x1 = 0.3069	889.032 ± 0.52	1290.5 ± 0.86
323.16 K, x1 = 0.3976	923.008 ± 0.52	1327.3 ± 0.87
323.16 K, x1 = 0.4974	956.587 ± 0.52	1366.8 ± 0.88
323.16 K, x1 = 0.605	989.88 ± 0.51	1408.9 ± 0.89
323.16 K, x1 = 0.695	1015.08 ± 0.51	1441.8 ± 0.89
323.16 K, x1 = 0.7932	1040.3 ± 0.51	1479.9 ± 0.9
